{"source": "the CheMixHub ionic liquid set", "experiment": "xn = mol fraction of the nth substance listed", "note": "± gives the uncertainty stated by the source."}
{"smiles": "CC(=O)[O-].CC[NH2+]CC", "note": "+ CS(C)=O", "values": [{"measurement": "electrical conductivity", "setting": "298.15 K, 101 kPa, x1 = 0.0079", "value": "0.066 ± 0.002", "unit": "S/m"}, {"measurement": "electrical conductivity", "setting": "298.15 K, 101 kPa, x1 = 0.0285", "value": "0.157 ± 0.005", "unit": "S/m"}, {"measurement": "electrical conductivity", "setting": "298.15 K, 101 kPa, x1 = 0.0475", "value": "0.217 ± 0.007", "unit": "S/m"}, {"measurement": "electrical conductivity", "setting": "298.15 K, 101 kPa, x1 = 0.0697", "value": "0.282 ± 0.008", "unit": "S/m"}, {"measurement": "electrical conductivity", "setting": "298.15 K, 101 kPa, x1 = 0.0998", "value": "0.348 ± 0.01", "unit": "S/m"}, {"measurement": "viscosity", "setting": "298.15 K, 101 kPa, x1 = 0.1", "value": "2.99 ± 0.18", "unit": "mPa·s"}, {"measurement": "viscosity", "setting": "298.15 K, 101 kPa, x1 = 0.199", "value": "3.72 ± 0.23", "unit": "mPa·s"}, {"measurement": "electrical conductivity", "setting": "298.15 K, 101 kPa, x1 = 0.1997", "value": "0.44 ± 0.013", "unit": "S/m"}, {"measurement": "viscosity", "setting": "298.15 K, 101 kPa, x1 = 0.299", "value": "5.59 ± 0.34", "unit": "mPa·s"}, {"measurement": "electrical conductivity", "setting": "298.15 K, 101 kPa, x1 = 0.3011", "value": "0.492 ± 0.015", "unit": "S/m"}, {"measurement": "electrical conductivity", "setting": "298.15 K, 101 kPa, x1 = 0.3994", "value": "0.531 ± 0.016", "unit": "S/m"}, {"measurement": "viscosity", "setting": "298.15 K, 101 kPa, x1 = 0.4", "value": "8.01 ± 0.49", "unit": "mPa·s"}, {"measurement": "viscosity", "setting": "298.15 K, 101 kPa, x1 = 0.5", "value": "11.94 ± 0.73", "unit": "mPa·s"}, {"measurement": "electrical conductivity", "setting": "298.15 K, 101 kPa, x1 = 0.5008", "value": "0.459 ± 0.014", "unit": "S/m"}, {"measurement": "viscosity", "setting": "298.15 K, 101 kPa, x1 = 0.601", "value": "15.88 ± 0.98", "unit": "mPa·s"}, {"measurement": "electrical conductivity", "setting": "298.15 K, 101 kPa, x1 = 0.6022", "value": "0.433 ± 0.013", "unit": "S/m"}, {"measurement": "viscosity", "setting": "298.15 K, 101 kPa, x1 = 0.682", "value": "21.1 ± 1.3", "unit": "mPa·s"}, {"measurement": "electrical conductivity", "setting": "298.15 K, 101 kPa, x1 = 0.7005", "value": "0.394 ± 0.012", "unit": "S/m"}, {"measurement": "viscosity", "setting": "298.15 K, 101 kPa, x1 = 0.798", "value": "32.6 ± 2.1", "unit": "mPa·s"}, {"measurement": "electrical conductivity", "setting": "298.15 K, 101 kPa, x1 = 0.8019", "value": "0.367 ± 0.011", "unit": "S/m"}, {"measurement": "viscosity", "setting": "298.15 K, 101 kPa, x1 = 0.899", "value": "44.2 ± 2.8", "unit": "mPa·s"}, {"measurement": "electrical conductivity", "setting": "298.15 K, 101 kPa, x1 = 0.9017", "value": "0.335 ± 0.01", "unit": "S/m"}, {"measurement": "viscosity", "setting": "298.15 K, 101 kPa, x2 = 0.005", "value": "58.3 ± 3.8", "unit": "mPa·s"}, {"measurement": "viscosity", "setting": "298.15 K, 101 kPa, x2 = 0.2023", "value": "13.67 ± 0.35", "unit": "mPa·s"}, {"measurement": "viscosity", "setting": "298.15 K, 101 kPa, x2 = 0.2814", "value": "12.66 ± 0.33", "unit": "mPa·s"}, {"measurement": "viscosity", "setting": "298.15 K, 101 kPa, x2 = 0.5897", "value": "8.7 ± 0.23", "unit": "mPa·s"}, {"measurement": "viscosity", "setting": "298.15 K, 101 kPa, x2 = 0.66", "value": "7.71 ± 0.2", "unit": "mPa·s"}, {"measurement": "viscosity", "setting": "298.15 K, 101 kPa, x2 = 0.7851", "value": "5.81 ± 0.15", "unit": "mPa·s"}, {"measurement": "viscosity", "setting": "298.15 K, 101 kPa, x2 = 0.971", "value": "2.53 ± 0.07", "unit": "mPa·s"}, {"measurement": "viscosity", "setting": "303.15 K, 101 kPa, x2 = 0.0253", "value": "13.36 ± 0.34", "unit": "mPa·s"}, {"measurement": "viscosity", "setting": "303.15 K, 101 kPa, x2 = 0.7253", "value": "5.92 ± 0.16", "unit": "mPa·s"}, {"measurement": "viscosity", "setting": "303.15 K, 101 kPa, x2 = 0.8406", "value": "4.41 ± 0.12", "unit": "mPa·s"}, {"measurement": "viscosity", "setting": "303.15 K, 101 kPa, x2 = 0.9248", "value": "3.13 ± 0.09", "unit": "mPa·s"}, {"measurement": "viscosity", "setting": "308.15 K, 101 kPa, x2 = 0.1535", "value": "10.52 ± 0.27", "unit": "mPa·s"}, {"measurement": "viscosity", "setting": "308.15 K, 101 kPa, x2 = 0.2814", "value": "9.46 ± 0.25", "unit": "mPa·s"}]}
{"smiles": "CCO", "note": "+ C[N+](C)(C)CCC[N+]1(C)CCCCC1.N#C[N-]C#N.N#C[N-]C#N", "values": [{"measurement": "viscosity", "setting": "293.15 K, 100 kPa, x2 = 0", "value": "1.19 ± 0.12", "unit": "mPa·s"}, {"measurement": "viscosity", "setting": "303.15 K, 100 kPa, x2 = 0", "value": "0.991 ± 0.099", "unit": "mPa·s"}, {"measurement": "viscosity", "setting": "313.15 K, 100 kPa, x2 = 0", "value": "0.828 ± 0.083", "unit": "mPa·s"}, {"measurement": "viscosity", "setting": "323.15 K, 100 kPa, x2 = 0", "value": "0.705 ± 0.071", "unit": "mPa·s"}, {"measurement": "viscosity", "setting": "333.15 K, 100 kPa, x2 = 0", "value": "0.593 ± 0.059", "unit": "mPa·s"}]}
{"smiles": "CCCCCC[N+]1(C)CCCC1.O=S(=O)([N-]S(=O)(=O)C(F)(F)F)C(F)(F)F", "note": "+ Cc1ccccc1", "values": [{"measurement": "viscosity", "setting": "293.15 K, 100 kPa, x2 = 0.3938", "value": "37.27 ± 0.79", "unit": "mPa·s"}, {"measurement": "viscosity", "setting": "293.15 K, 100 kPa, x2 = 0.7993", "value": "4.124 ± 0.088", "unit": "mPa·s"}, {"measurement": "viscosity", "setting": "303.15 K, 100 kPa, x2 = 0.5961", "value": "11.17 ± 0.24", "unit": "mPa·s"}, {"measurement": "viscosity", "setting": "308.15 K, 100 kPa, x2 = 0.29", "value": "30.33 ± 0.64", "unit": "mPa·s"}, {"measurement": "viscosity", "setting": "308.15 K, 100 kPa, x2 = 0.7993", "value": "3.15 ± 0.067", "unit": "mPa·s"}, {"measurement": "viscosity", "setting": "313.15 K, 100 kPa, x2 = 0", "value": "51 ± 1.1", "unit": "mPa·s"}]}
{"smiles": "CCC(=O)OC", "note": "+ O=S(=O)([N-]S(=O)(=O)C(F)(F)F)C(F)(F)F.[Li+]", "values": [{"measurement": "electrical conductivity", "setting": "298.1 K, 100 kPa, x2 = 0.333", "value": "0.23 ± 0.01", "unit": "S/m"}, {"measurement": "viscosity", "setting": "298.1 K, 100 kPa, x2 = 0.333", "value": "21.6 ± 0.5", "unit": "mPa·s"}]}
{"smiles": "CC[n+]1ccccc1.O=S(=O)([N-]S(=O)(=O)C(F)(F)F)C(F)(F)F", "note": "+ O", "values": [{"measurement": "viscosity", "setting": "298.15 K, 101 kPa, x2 = 0.08693", "value": "34.1 ± 2.1", "unit": "mPa·s"}, {"measurement": "viscosity", "setting": "323.15 K, 101 kPa, x2 = 0.005125", "value": "17.8 ± 1.1", "unit": "mPa·s"}, {"measurement": "viscosity", "setting": "323.15 K, 101 kPa, x2 = 0.08693", "value": "15.47 ± 0.94", "unit": "mPa·s"}, {"measurement": "viscosity", "setting": "343.15 K, 101 kPa, x2 = 0.08693", "value": "9.7 ± 0.59", "unit": "mPa·s"}, {"measurement": "viscosity", "setting": "353.15 K, 101 kPa, x2 = 0.005125", "value": "8.68 ± 0.53", "unit": "mPa·s"}]}
